Reference: PubChem BioAssay AID2198 (Vanderbilt High Throughput Screening Facility, 2009)
pEC50: −log10 of the molar value. Activity calls are given as the source filed them.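 How the source made its calls: active means mean EC50 under 30 µM; inactive means the rest.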

Target: Muscarinic acetylcholine receptor M5 (Homo sapiens) (UniProt P08912)
Assay: human M5 positive allosteric modulators, SAR follow-up, cell-based, calcium (AID 2198)
Conditions: CHO-K1 hM5, Fluo-4 calcium, ACh EC20 potentiation

Sequence of Muscarinic acetylcholine receptor M5 (Homo sapiens) (P08912 whole entry, looked up): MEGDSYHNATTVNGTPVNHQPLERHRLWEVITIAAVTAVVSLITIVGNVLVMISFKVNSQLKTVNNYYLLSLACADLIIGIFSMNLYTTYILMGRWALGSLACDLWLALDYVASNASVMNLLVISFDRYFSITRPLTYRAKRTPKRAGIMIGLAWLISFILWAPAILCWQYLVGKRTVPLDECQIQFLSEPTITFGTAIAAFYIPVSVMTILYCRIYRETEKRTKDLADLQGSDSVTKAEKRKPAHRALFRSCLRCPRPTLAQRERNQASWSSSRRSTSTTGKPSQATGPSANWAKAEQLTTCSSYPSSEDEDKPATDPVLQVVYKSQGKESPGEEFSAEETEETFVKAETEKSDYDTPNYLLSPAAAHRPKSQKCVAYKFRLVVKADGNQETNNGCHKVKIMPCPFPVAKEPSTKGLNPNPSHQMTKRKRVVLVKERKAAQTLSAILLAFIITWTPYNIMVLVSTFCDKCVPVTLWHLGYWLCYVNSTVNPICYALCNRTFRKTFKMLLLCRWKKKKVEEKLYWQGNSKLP

`O=C1C(=O)N(Cc2ccc(C(F)(F)F)cc2)c2ccccc21` and `O=C1C(=O)N(Cc2ccc(C(F)(F)F)cc2)c2ccc(Cl)cc21` are within 0.2 log units of each other in pEC50: 5.50 for the first, 5.48 for the second.

Going from `O=C1C(=O)N(Cc2ccc(C(F)(F)F)cc2)c2c(F)cccc21` to `O=C1C(=O)N(Cc2ccc(Br)cc2)c2c(F)cccc21`, the pEC50 rises from 5.49 to 5.71 (0.22 log units).

`O=C1C(=O)N(Cc2ccc(OC(F)(F)F)cc2)c2ccc(OC(F)(F)F)cc21` and `O=C1C(=O)N(Cc2ccc(C(F)(F)F)cc2)c2ccc(OC(F)(F)F)cc21` are the same in pEC50: 5.73 for the first, 5.73 for the second.

`O=C1C(=O)N(Cc2ccccc2Cl)c2ccc(OC(F)(F)F)cc21` and `Cc1ccccc1CN1C(=O)C(=O)c2cc(OC(F)(F)F)ccc21` are within 0.2 log units of each other in pEC50: 5.39 for the first, 5.48 for the second.

`O=C1C(=O)N(Cc2ccc(Br)cc2F)c2c(Cl)cccc21` and `COc1ccc(CN2C(=O)C(=O)c3cccc(Cl)c32)cc1` are within 0.2 log units of each other in pEC50: 5.33 for the first, 5.40 for the second.

`COc1cccc(CN2C(=O)C(=O)c3cc(OC(F)(F)F)ccc32)c1` and `COc1ccc(CN2C(=O)C(=O)c3cc(OC(F)(F)F)ccc32)cc1` are within 0.2 log units of each other in pEC50: 5.77 for the first, 5.94 for the second.

With `COc1cccc(CN2C(=O)C(=O)c3c(Cl)ccc(Cl)c32)c1` the pEC50 was 5.15.

In the case of `O=C1C(=O)N(Cc2ccc(Br)cc2F)c2ccc(OC(F)(F)F)cc21`, the EC50 was > 30 µM (inactive).
In the case of `O=C1C(=O)N(Cc2ccccc2C(F)(F)F)c2ccc(F)cc21`, the EC50 was > 30 µM (inactive).
`O=C1C(=O)N(Cc2ccccc2C(F)(F)F)c2c(F)cccc21` was tested, and the EC50 was > 30 µM (inactive).
With `COc1ccc(CN2C(=O)C(=O)c3ccccc32)cc1` the EC50 was > 30 µM (inactive).
